Laboratory results from PubChem BioAssay AID298 (DTP/NCI, 2004).
“And” between values parts separate entries of the source, which are not always exact repeats. Equal values may be shown once. Results filed as inconclusive are left out.

Tested on: MX-1 breast xenograft, intrarenal, nude mice, tumor weight
Assay: NCI In Vivo Anticancer Drug Screen. Data for tumor model Human Mammary Carcinoma MX-1 Xenograft (intrarenal inoculation) in NU/NU BALB/C (nude) mice
Details: endpoint: mean tumor weight change, higher = larger tumour
Procedure, shortened: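 Transplantable tumors established in mice; animals dosed with compound or vehicle; survival or tumor size then recorded. Result reported as treated (T) divided by vehicle control (C).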

[1] = dose: 300.0 mg/kg/injection, schedule: Q04DX003 (sc), vehicle: saline with Tween-80
[2] = dose: 600.0 mg/kg/injection, schedule: Q04DX003 (sc), vehicle: saline with Tween-80
[3] = dose: 150.0 mg/kg/injection, schedule: Q04DX003 (ip), vehicle: saline
[4] = dose: 100.0 mg/kg/injection, schedule: Q04DX003 (ip), vehicle: saline with Tween-80
[5] = dose: 200.0 mg/kg/injection, schedule: Q04DX003 (ip), vehicle: saline with Tween-80
[6] = dose: 75.0 mg/kg/injection, schedule: Q04DX003 (ip), vehicle: Klucel (hydroxypropylcellulose) (HPC)
[7] = dose: 150.0 mg/kg/injection, schedule: Q04DX003 (ip), vehicle: Klucel (hydroxypropylcellulose) (HPC)

With `CN1CCN(CN2C(=O)C3C4C=CC(C3C2=O)C2C3C(=O)N(CN5CCN(C)CC5)C(=O)C3C42)CC1` (stereo not drawn) the T/C (dose: 9.3 mg/kg/injection, schedule: Q04DX003 (ip), vehicle: water) was 98 % of control, the T/C (dose: 18.75 mg/kg/injection, schedule: Q04DX003 (ip), vehicle: water) was 106 % of control and the T/C (dose: 25.0 mg/kg/injection, schedule: Q04DX003 (ip), vehicle: water) was 67 % of control. For the same compound, the T/C (dose: 37.5 mg/kg/injection, schedule: Q04DX003 (ip), vehicle: water) was 83 % of control, the T/C (dose: 50.0 mg/kg/injection, schedule: Q04DX003 (ip), vehicle: water) was 52 % of control and the T/C (dose: 75.0 mg/kg/injection, schedule: Q04DX003 (ip), vehicle: other) was 122 % of control. The T/C (dose: 75.0 mg/kg/injection, schedule: Q04DX003 (ip), vehicle: water) was 72 % of control and 94 % of control and the T/C (dose: 100.0 mg/kg/injection, schedule: Q04DX003 (ip), vehicle: water) was 45 % of control.

With `C[C@H]1C[C@@H]2[C@H]([C@@H](O)C[C@@]3(C)[C@H]2CC[C@]3(O)C(=O)CO)[C@@]2(C)C=CC(=O)C=C12` the T/C (dose: 200.0 mg/kg/injection, schedule: Q04DX003 (sc), vehicle: Klucel (hydroxypropylcellulose) (HPC)) was 37 % of control, the T/C (dose: 400.0 mg/kg/injection, schedule: Q04DX003 (sc), vehicle: Klucel (hydroxypropylcellulose) (HPC)) was 47 % of control and the T/C (dose: 800.0 mg/kg/injection, schedule: Q04DX003 (sc), vehicle: Klucel (hydroxypropylcellulose) (HPC)) was 37 % of control. For the same compound, the T/C (dose: 1600.0 mg/kg/injection, schedule: Q04DX003 (sc), vehicle: Klucel (hydroxypropylcellulose) (HPC)) was 19 % of control.

With `Oc1ccc(/C=N/Nc2nnc(N/N=C/c3ccc(O)cc3O)c3ccccc23)c(O)c1` the T/C (dose: 25.0 mg/kg/injection, schedule: Q04DX003 (ip), vehicle: suspension in saline) was 50 % of control, the T/C (dose: 50.0 mg/kg/injection, schedule: Q04DX003 (ip), vehicle: suspension in saline) was 102 % of control and the T/C (dose: 100.0 mg/kg/injection, schedule: Q04DX003 (ip), vehicle: suspension in saline) was 115 % of control.

In the case of `Nc1ccn(C2OC(CO)C(O)C2O)c(=O)n1` (stereo not drawn), the T/C (dose: 500.0 mg/kg/injection, schedule: Q04DX003 (sc), vehicle: saline) was 57 % of control and the T/C (dose: 1000.0 mg/kg/injection, schedule: Q04DX003 (sc), vehicle: saline) was 68 % of control.

With `COC(=Nc1ccccc1)SSC(C)C` the T/C [1] was 90 % of control and the T/C [2] was 99 % of control.

For `CNc1nc(N(C)C)nc(N(C)C)n1`, the T/C (dose: 30.0 mg/kg/injection, schedule: Q01DX010 (sc), vehicle: water) was 1 % of control, the T/C (dose: 60.0 mg/kg/injection, schedule: Q01DX010 (sc), vehicle: water) was -31 % of control and the T/C (dose: 120.0 mg/kg/injection, schedule: Q01DX010 (sc), vehicle: water) was -94 % of control.

In the case of `CCCNC1=C(C)C(=O)C2=C(C1=O)[C@H](COC(N)=O)[C@]1(OC)[C@@H]3N[C@@H]3CN21`, the T/C (dose: 3.0 mg/kg/injection, schedule: Q04DX003 (sc), vehicle: saline) was 13 % of control, the T/C (dose: 6.0 mg/kg/injection, schedule: Q04DX003 (sc), vehicle: saline) was -77 % of control and the T/C (dose: 12.0 mg/kg/injection, schedule: Q04DX003 (sc), vehicle: saline) was -100 % of control.

With `CN=C(N)c1ccc(N=C(N)c2ccc(C(N)=Nc3ccc(C(N)=NC)cc3)cc2)cc1` the T/C (dose: 15.0 mg/kg/injection, schedule: Q04DX003 (ip), vehicle: saline) was 96 % of control and the T/C (dose: 30.0 mg/kg/injection, schedule: Q04DX003 (ip), vehicle: saline) was 118 % of control.

In the case of `O=c1[nH]cnc2c1nnn2C1OC(CO)C(O)C1O` (stereo not drawn), the T/C [3] was 18 % of control and 32 % of control, the T/C (dose: 150.0 mg/kg/injection, schedule: Q04DX003 (ip), vehicle: suspension in saline) was 11 % of control and 24 % of control and the T/C (dose: 300.0 mg/kg/injection, schedule: Q04DX003 (ip), vehicle: saline) was 17 % of control and 19 % of control. The T/C (dose: 300.0 mg/kg/injection, schedule: Q04DX003 (ip), vehicle: suspension in saline) was 10 % of control and 20 % of control, the T/C (dose: 600.0 mg/kg/injection, schedule: Q04DX003 (ip), vehicle: saline) was 8 % of control and 13 % of control and the T/C (dose: 600.0 mg/kg/injection, schedule: Q04DX003 (ip), vehicle: suspension in saline) was 9 % of control and 13 % of control. For the same compound, the T/C (dose: 1200.0 mg/kg/injection, schedule: Q04DX003 (ip), vehicle: saline) was 9 % of control and 11 % of control and the T/C (dose: 1200.0 mg/kg/injection, schedule: Q04DX003 (ip), vehicle: suspension in saline) was 8 % of control and 12 % of control.

For `O=P1(NCCCl)OCCCN1CCCl` (stereo not drawn), the T/C (dose: 150.0 mg/kg/injection, schedule: Q04DX003 (sc), vehicle: saline) was -32 % of control.

`CCOC(=O)[C@]1(Br)CC[C@@]1(Br)C(=O)OCC` was tested, and the T/C [1] was 99 % of control, the T/C [2] was 96 % of control and the T/C (dose: 1200.0 mg/kg/injection, schedule: Q04DX003 (sc), vehicle: saline with Tween-80) was 94 % of control.

`CC(/C=C/C=C/C=C/C=C/C=C/C(O)=C1/C(=O)C(CCC(=O)O)N(C)C1=O)=C\C(C)C(OC1CC(O)C(O)C(C)O1)C(C)C` (stereo not drawn) was tested, and the T/C (dose: 8.0 mg/kg/injection, schedule: Q04DX003 (ip), vehicle: water) was 62 % of control, the T/C (dose: 15.88 mg/kg/injection, schedule: Q04DX003 (ip), vehicle: water) was 115 % of control and the T/C (dose: 16.0 mg/kg/injection, schedule: Q04DX003 (ip), vehicle: water) was 57 % of control. The T/C (dose: 31.75 mg/kg/injection, schedule: Q04DX003 (ip), vehicle: water) was 97 % of control, the T/C (dose: 32.0 mg/kg/injection, schedule: Q04DX003 (ip), vehicle: water) was 95 % of control and the T/C (dose: 62.5 mg/kg/injection, schedule: Q04DX003 (ip), vehicle: water) was 63 % of control. For the same compound, the T/C (dose: 64.0 mg/kg/injection, schedule: Q04DX003 (ip), vehicle: water) was 58 % of control and the T/C (dose: 125.0 mg/kg/injection, schedule: Q04DX003 (ip), vehicle: water) was 50 % of control.

With `C=C(C)C1C2CC3(C)C4(CO4)C4OC4C3(O)C1C(=O)O2` (stereo not drawn) the T/C (dose: 0.15 mg/kg/injection, schedule: Q04DX003 (ip), vehicle: Klucel (hydroxypropylcellulose) (HPC)) was 116 % of control, the T/C (dose: 0.31 mg/kg/injection, schedule: Q04DX003 (ip), vehicle: Klucel (hydroxypropylcellulose) (HPC)) was 86 % of control and the T/C (dose: 0.62 mg/kg/injection, schedule: Q04DX003 (ip), vehicle: Klucel (hydroxypropylcellulose) (HPC)) was 106 % of control.

With `COc1cc(C(CC(C)=O)c2cc3c(cc2OC(C)=O)OCO3)cc(OC)c1OC` (stereo not drawn) (tested in a mixture with another compound) the T/C (dose: 50.0 mg/kg/injection, schedule: Q04DX003 (ip), vehicle: saline with Tween-80) was 59 % of control, the T/C (dose: 72.0 mg/kg/injection, schedule: Q04DX003 (ip), vehicle: saline with Tween-80) was 103 % of control and the T/C [4] was 34 % of control. For the same compound, the T/C (dose: 120.0 mg/kg/injection, schedule: Q04DX003 (ip), vehicle: saline with Tween-80) was 110 % of control and the T/C [5] was 19 % of control and 20 % of control.

In the case of `N=C(N)c1ccc(N=Nc2c(O)ccc3cc(O)ccc23)cc1`, the T/C [6] was 98 % of control and 123 % of control, the T/C [7] was 95 % of control and 117 % of control and the T/C (dose: 300.0 mg/kg/injection, schedule: Q04DX003 (ip), vehicle: Klucel (hydroxypropylcellulose) (HPC)) was 70 % of control.

In the case of `Cc1cnc(/C=N\NC(N)=S)c2cccc(N)c12`, the T/C (dose: 125.0 mg/kg/injection, schedule: Q04DX003 (ip), vehicle: saline with Tween-80) was 31 % of control.

For `CCc1nc(N)nc(N)c1-c1ccc(Cl)c([N+](=O)[O-])c1`, the T/C (dose: 18.75 mg/kg/injection, schedule: Q04DX003 (sc), vehicle: saline with Tween-80) was 99 % of control, the T/C (dose: 37.5 mg/kg/injection, schedule: Q04DX003 (sc), vehicle: saline with Tween-80) was 71 % of control and the T/C (dose: 75.0 mg/kg/injection, schedule: Q04DX003 (sc), vehicle: saline with Tween-80) was 82 % of control.

`NC(=O)C1C=CN(Cc2ccccc2)C=C1` was tested, and the T/C [4] was 62 % of control and the T/C [5] was 64 % of control.

With `COc1cc(O)c2c(O)c3c(c4c2c1[C@]1(C4)C(C)=CCCC1(C)C)[C@H](O)[C@@]1(O)CC(=O)C(C(N)=O)=C(O)[C@@]1(O)C3=O` the T/C (dose: 75.0 mg/kg/injection, schedule: Q04DX003 (ip), vehicle: saline with Tween-80) was 106 % of control.

In the case of `CC(NNC(=S)N(C)C1CCCCC1)c1cc2ccccc2cn1` (stereo not drawn), the T/C [3] was 80 % of control.

`c1ccc(-c2cc3cc4ccccc4cn3c2)cc1` was tested, and the T/C (dose: 150.0 mg/kg/injection, schedule: Q04DX003 (ip), vehicle: saline with Tween-80) was 61 % of control, the T/C (dose: 300.0 mg/kg/injection, schedule: Q04DX003 (ip), vehicle: saline with Tween-80) was 108 % of control and the T/C (dose: 600.0 mg/kg/injection, schedule: Q04DX003 (ip), vehicle: saline with Tween-80) was 81 % of control. For the same compound, the T/C (dose: 1200.0 mg/kg/injection, schedule: Q04DX003 (ip), vehicle: saline with Tween-80) was 101 % of control.

`COc1cc2c(c3c1c(=O)c1ccccc1n3C)C=CC(C)(C)O2` was tested, and the T/C (dose: 37.5 mg/kg/injection, schedule: Q04DX003 (ip), vehicle: Klucel (hydroxypropylcellulose) (HPC)) was 54 % of control, the T/C [6] was 40 % of control and the T/C [7] was 21 % of control.
